Patent US9980927B2, “Use of tapentadol for inhibiting and/or treating depression and anxiety” (Gruenenthal GmbH, priority 2011, dated 2018)

Test system: patients with inadequately managed, severe chronic low back pain with or without a neuropathic pain component
Test: Hospital Anxiety and Depression Scale (HADS) anxiety score; open-label phase IIIb trial, tapentadol prolonged release 50-250 mg bid for up to 12 weeks
Assay type: in vivo, human patients
Settings: for HADS anxiety score, course: Baseline to Week 12
Procedure: As used herein, the “anxiety score” is a value determining the degree of the […]. The scale of anxiety scores covers the range from 0 to 21, wherein the degree of the anxiety is high in case of high values and low in case of low values. In a group of tested subjects, typically the mean or mediate values of anxiety scores are determined and referred to. The mean value is the sum of all anxiety scores divided by the number of subjects. The mediate value is the middle anxiety score in the set of determined scores. Preferably, the “anxiety score” is defined as in the experimental section.
A subgroup suffering from neuropathic pain due to lumbar radiculopathy was also investigated.
This was a multicenter, multinational, open-label, effectiveness phase IIIb trial to evaluate effectiveness and safety of tapentadol prolonged release treatment in patients with inadequately managed, severe chronic low back pain with or without a neuropathic pain component. Patients taking WHO Step II analgesics discontinued those analgesics before starting study medication; patients taking Step I analgesics and/or centrally acting co-analgesics continued on the same dose. […] All patients received tapentadol prolonged release (50-250 mg bid) for up to 12 weeks (5-week titration period and a 7-week maintenance period). Tapentadol immediate release (IR) 50 mg (twice a day, hours apart) was permitted (combined total daily dose of tapentadol prolonged release and tapentadol IR, 500 mg/day). The primary efficacy endpoint was the change from Baseline to Week 6 (when tapentadol prolonged release doses were stable) in average pain intensity on the 11-point NRS-3 using the last observation carried forward (LOCF) for imputing missing scores. The painDETECT questionnaire was used to evaluate the likelihood of a neuropathic pain component of low back pain; patients were classified as painDETECT “negative,” “unclear,” or “positive.” The population of patients classified as painDETECT negative was limited to approximately 30% of the total population.
In the painDETECT positive trial population the “diagnosis of lumbar radiculopathy” was evaluated which was defined per study protocol according following criteria: • typical dermatomal pain (radiating beyond the knee towards the foot, pain evoked by stretching within distribution of the ischiadic/femoral nerve) • signs of root dysfunction: • such as sensory impairment, motor symptoms from compression of lumbar nerve root (L4, L5, S1). • and/or absent or diminished quadriceps femoris or triceps surae reflexes. • and/or quantitative sensory testing (QST) deficit and pain distribution present in the same dermatomal area.
All subjects completed Short Form-36 (SF-36) and EuroQol-5 Dimension (EQ-5D) questionnaires and the Hospital Anxiety and Depression Scale (HADS). The Patient Global Impression of Change (PGIC) and Clinical global impression of change (CGIC) were also used as secondary endpoints. For both tests, patients completed the statement, “since I began trial treatment, I would rate my overall condition as,” using 7 possible responses (“very much worse” to “very much improved”). Adverse events were recorded throughout the trial.
In the following • (i) N is the number of subjects of the specified diagnosis group, • (ii) n is the number of subjects with data available, • (iii) “Mean” is the mean score of the subjects, i.e. the sum of all scores is divided by the number of subjects, • (iv) SD is the standard deviation, • (v) “Median” is the median score of the subjects, i.e. the middle score in the set of scores, • (vi) “Range” is the range of scores of the subjects, i.e. the range defined by the lowest and the highest score of the set of scores. First, the depression scores are presented. The total number of subjects in the clinical study: N=175

[1] = Visit 1, defined neuropathic pain N=85
[2] = Visit 1, positive diagnosis of lumbar radiculopathy-neuropathic pain subset N=44
[3] = Visit 1, presumed neuropathic pain component N=41
[4] = Visit 1, presumed or defined neuropathic pain component N=126
[5] = Visit 1, subjects with nociceptive pain N=49
[6] = Visit 5, defined neuropathic pain N=85
[7] = Visit 5, positive diagnosis of lumbar radiculopathy-neuropathic pain subset N=44
[8] = Visit 5, presumed neuropathic pain component N=41
[9] = Visit 5, presumed or defined neuropathic pain component N=126
[10] = Visit 5, subjects with nociceptive pain N=49
[11] = Visit 6, defined neuropathic pain N=85
[12] = Visit 6, positive diagnosis of lumbar radiculopathy-neuropathic pain subset N=44
[13] = Visit 6, presumed neuropathic pain component N=41
[14] = Visit 6, presumed or defined neuropathic
[15] = Visit 6, presumed or defined neuropathic pain component N=126
[16] = Visit 6, subjects with nociceptive pain N=49
[17] = Visit 7, defined neuropathic pain N=85
[18] = Visit 7, positive diagnosis of lumbar radiculopathy-neuropathic pain subset N=44
[19] = Visit 7, presumed neuropathic pain component N=41
[20] = Visit 7, presumed or defined neuropathic pain component N=126
[21] = Visit 7, subjects with nociceptive pain N=49
[22] = Visit 8, defined neuropathic pain N=85

Structure (SMILES): CC[C@@H](c1cccc(O)c1)[C@@H](C)CN(C)C [tapentadol, (−)-(1R,2R)-3-(3-dimethylamino-1-ethyl-2-methyl-propyl)-phenol]
- HADS anxiety score, course (painDETECT negative): not significantly
- HADS anxiety score, course (painDETECT unclear/positive, P<0.0001 at Visit 12): improved steadily
- HADS anxiety score, course (positive diagnosis of lumbar radiculopathy-neuropathic pain subset, p=0.0105 at Visit 12): improved steadily
- Anxiety score Mean (SD) [1]: 8.3 (4.01)
- Anxiety score Median [1]: 8.0
- Anxiety score Mean (SD) [2]: 8.7 (3.64)
- Anxiety score Median [2]: 9.0
- Anxiety score Mean (SD) [3]: 7.9 (4.52)
- Anxiety score Median [3]: 7.0
- Anxiety score Mean (SD) [4]: 8.2 (4.16)
- Anxiety score Median [4]: 8.0
- Anxiety score Mean (SD) [5]: 5.9 (4.19)
- Anxiety score Median [5]: 6.0
- Anxiety score Mean (SD) (Visit 1, total subjects N=175): 7.6 (4.28)
- Anxiety score Median (Visit 1, total subjects N=175): 7.0
- Anxiety score Mean (SD) [6]: 7.2 (3.89)
- Anxiety score Median [6]: 8.0
- Anxiety score Mean (SD) [7]: 6.8 (3.39)
- Anxiety score Median [7]: 7.5
- Anxiety score Mean (SD) [8]: 6.7 (4.22)
- Anxiety score Median [8]: 7.0
- Anxiety score Mean (SD) [9]: 7.0 (3.98)
- Anxiety score Median [9]: 7.0
- Anxiety score Mean (SD) [10]: 6.1 (3.80)
- Anxiety score Median [10]: 5.0
- Anxiety score Mean (SD) (Visit 5, total subjects N=175): 6.8 (3.94)
- Anxiety score Median (Visit 5, total subjects N=175): 7.0
- Anxiety score change from baseline Mean (SD) (Visit 6): −1.6 (3.58)
- Anxiety score change from baseline Median (Visit 6): −1.0
- Anxiety score change from baseline Mean (SD) (Visit 6, defined neuropathic): −1.4 (3.44)
- Anxiety score change from baseline Median (Visit 6, defined neuropathic): −1.0
- Anxiety score Mean (SD) [11]: 6.9 (3.66)
- Anxiety score Median [11]: 6.0
- Anxiety score change from baseline Mean (SD) (Visit 6, lumbar radiculopathy): −1.4 (3.88)
- Anxiety score change from baseline Median (Visit 6, lumbar radiculopathy): −0.5
- Anxiety score change from baseline Mean (SD) (Visit 6, nociceptive): −0.3 (2.93)
- Anxiety score change from baseline Median (Visit 6, nociceptive): 0.0
- Anxiety score Mean (SD) [12]: 7.1 (3.46)
- Anxiety score Median [12]: 7.5
- Anxiety score Mean (SD) [13]: 6.9 (3.99)
- Anxiety score Median [13]: 6.0
- Anxiety score change from baseline Mean (SD) [14]: −1.5 (3.47)
- Anxiety score change from baseline Median [14]: −1.0
- Anxiety score Mean (SD) [15]: 6.9 (3.75)
- Anxiety score Median [15]: 6.0
- Anxiety score Mean (SD) [16]: 5.8 (4.68)
- Anxiety score Median [16]: 5.0
- Anxiety score change from baseline Mean (SD) (Visit 6, total): −1.2 (3.36)
- Anxiety score change from baseline Median (Visit 6, total): −1.0
- Anxiety score Mean (SD) (Visit 6, total subjects N=175): 6.6 (4.02)
- Anxiety score Median (Visit 6, total subjects N=175): 6.0
- Anxiety score Mean (SD) [17]: 6.1 (3.91)
- Anxiety score Median [17]: 6.0
- Anxiety score Mean (SD) [18]: 6.1 (3.85)
- Anxiety score Median [18]: 6.0
- Anxiety score Mean (SD) [19]: 5.9 (4.08)
- Anxiety score Median [19]: 5.5
- Anxiety score Mean (SD) [20]: 6.0 (3.95)
- Anxiety score Median [20]: 6.0
- Anxiety score Mean (SD) [21]: 5.6 (4.15)
- Anxiety score Median [21]: 5.0
- Anxiety score Mean (SD) (Visit 7, total subjects N=175): 5.9 (3.99)
- Anxiety score Median (Visit 7, total subjects N=175): 6.0
- Anxiety score change from baseline Mean (SD) (Visit 8): −2.9 (3.11)
- Anxiety score change from baseline Median (Visit 8): −2.0
- Anxiety score change from baseline Mean (SD) (Visit 8, defined neuropathic): −2.2 (3.77)
- Anxiety score change from baseline Median (Visit 8, defined neuropathic): −2.0
- Anxiety score Mean (SD) [22]: 6.0 (3.66)
- Anxiety score Median [22]: 5.0
- Anxiety score change from baseline Mean (SD) (Visit 8, lumbar radiculopathy): −2.4 (4.23)
- Anxiety score change from baseline Median (Visit 8, lumbar radiculopathy): −1.0
- Anxiety score change from baseline Mean (SD) (Visit 8, nociceptive): −0.7 (3.88)
- Anxiety score change from baseline Median (Visit 8, nociceptive): −1.0
- Anxiety score Mean (SD) (Visit 8, positive diagnosis of lumbar radiculopathy-neuropathic pain subset N=44): 5.9 (3.74)
